Patent US4931553A, “Platinum-polymer complexes and their use as antitumor agents” (priority 1988, dated 1990)

Tests used:
[1] = tested on: tumors responsive to cisplatin and/or DACH-Pt and bisplatinum complex therapy; test: Anti-tumor activity (statement for the pyran copolymer complex); details: in vivo
[2] = cited from earlier work
[3] = Aqueous solubility of polymeric platinum prodrugs; assay type: physicochemical; details: for Aqueous solubility / Appearance: Table I; for Appearance: appearance of the aqueous solution; for Solubility of the complex: temperature not stated; for Solubility at RT: room temperature
Text: Three polyacrylic acid polymers of weight average molecular weight 2000, 5000, 15,000 were used as ligands for complexation with Pt(DACH)(NO3)2 to determine the effect of molecular weight on the physical properties and antitumor properties of the complexes. […] In addition to polyacrylic acids, polymethacrylic acid of 15,000 weight average molecular weight and isotactic and syndiotactic polymethacrylic acid polymers of about 5000 Mw were used as ligands. The polyacrylates were complexed with Pt(DACH)(NO3)2 in aqueous solution at pH 4-6.

[4] = tested on: L1210 murine tumor; test: L1210 murine tumor model in BDF1 mice (T/C% and cures); assay type: in vivo
Description: Some of the specific compounds of the examples above were tested by NCI against L1210 murine tumor model in BDF1 mice. The tumored mice were injected ip with solutions of compounds on days 1, 5, and 9 after the cell innoculum. The results of the experiments were evaluated on day 30 and are expressed as the quotient of the median survival time in days of test animals divided by median day of death of the untreated control mice, multiplied by 100 (T/C%). Mice with no sign of tumor on day 30 are considered as cured.
T/C = Ratio of test evaluation to control evaluation expressed as
percentage. More precisely, T/C = Median survival time of test animals
× 100 (Median survival time of control).

[5] = tested on: x5563 Plasma Cell Myeloma; test: Inhibition of tumor weight, x5563 Plasma Cell Myeloma implanted subcutaneously; assay type: in vivo, mice; details: day 30
Description: (§1) In addition to the L1210 tumor line, Pt(trans-DACH)carboxyamylose (Pt:Polymer=1:6) was screened against additional murine tumor models. In these experiments, tumor of a known weight was implanted subcutaneously to the mice. The mice were then treated with the compound on day 1, 5, 9 schedule. On day 30, the tumors were reweighed and the results are expressed as percent inhibition of tumor weight.

[6] = tested on: M5 ovarian Carcinoma; test: Inhibition of tumor weight, M5 ovarian Carcinoma implanted subcutaneously; assay type: in vivo, mice; details: day 30
Description: as §1

[7] = tested on: Lewis Lung; test: Inhibition of tumor weight, Lewis Lung implanted subcutaneously; assay type: in vivo, mice; details: day 30
Description: as §1

[8] = tested on: CA - 755 Adenocarcinoma; test: Inhibition of tumor weight, CA-755 Adenocarcinoma implanted subcutaneously; assay type: in vivo, mice; details: day 30
Description: as §1

[9] = Aqueous solubility of polymeric platinum prodrugs; assay type: physicochemical; details: Table I; for Appearance: appearance of the aqueous solution
[10] = tested on: animal tumors; details: in vivo; cited from earlier work
[11] = tested on: malignancies in humans; details: in vivo; cited from earlier work
[12] = Table 2, 10 mg/kg, ip days 1, 5, 9, day 30
[13] = Table 2, 10 mg/kg, ip days 1, 5, 9, no sign of tumor on day 30
[14] = Table 2, 20 mg/kg, ip days 1, 5, 9, day 30
[15] = Table 2, 20 mg/kg, ip days 1, 5, 9, no sign of tumor on day 30

For “(trans-DACH) Pyran Copolymer Complex [Example 19]”, the “Anti-tumor activity (in words)” value [1] was “exhibits anti-tumor activity”.
For DACH-Pt(OH2)Cl2 (IV), the “Solubility of platinum-amine complexes (at most sparingly soluble)” value ([2]; at most sparingly soluble) is given as < 1 mg/mL.
In the case of “Pt(trans DACH)Carboxy amylopectin (176,000 Mw) [Example 17]”, the Aqueous solubility [3] was 725 mg/mL, the Appearance [3] was “clear” and the “Solubility of the complex” value [3] was “greater than 25 mg per ml”. For the same substance, the T/C [4, 12] was 357%, the Cures [4, 13] was 3/6 and the T/C [4, 14] was 261%. The Cures [4, 15] was 1/6.
With “Pt(trans-DACH)CO oxyalginic Acid (75.000 Mw) [Example 15]” the “Solubility in 10% sodium bicarbonate solution” value ([3]; 10% sodium bicarbonate, 40° C.) was 25 mg/mL.
For “Pt(trans-DACH)Carboxy Amylopectin (176.000 Mw) [Example 7 (freeze-dried)]”, the “Solubility at 50° C.” value [3] was 25 mg/mL.
In the case of “Pt(trans-DACH)Carboxy Amylopectin (176.000 Mw) [Example 7]”, the Aqueous solubility [3] was 25 mg/mL, the Appearance [3] was “clear” and the T/C [4, 12] was 337%. The Cures [4, 13] was 4/6, the T/C [4, 14] was 314% and the Cures [4, 15] was 2/6. The Cures ([4]; Table 3, 10 mg/kg) was 4/6, the T/C ([4]; Table 3, 10 mg/kg) was 337 and the Cures ([4]; Table 3, 20 mg/kg) was 2/6. The T/C ([4]; Table 3, 20 mg/kg) was 314.
With “Pt(trans-DACH)Carboxy Amylose (4,800 Mw) [Example 6]” the “Solubility at 50° C.” value [3] was 20 mg/mL.
In the case of “Pt(trans-DACH)Carboxy Amylose (50% degree of Oxidation) [Example 13]”, the “Solubility at 50° C.” value [3] was 25 mg/mL.
For “Pt(trans-DACH)Carboxy Amylose (176.000 Mw) [Example 5]”, the Aqueous solubility [3] was 10 mg/mL, the Appearance [3] was “clear” and the T/C [4, 12] was 269%. The Cures [4, 13] was 1/6, the T/C [4, 14] was 269% and the Cures [4, 15] was 2/6. The T/C ([4]; Table 2, 40 mg/kg, ip days 1, 5, 9, day 30) was 292%, the Cures ([4]; Table 2, 40 mg/kg, ip days 1, 5, 9, no sign of tumor on day 30) was 2/6 and the “% Inh. of tumor weight” value ([5]; dose 5, days 1, 5, 9) was 100%. The “% Inh. of tumor weight” value ([5]; dose 10, days 1, 5, 9) was 100%, the “% Inh. of tumor weight” value ([5]; dose 20, days 1, 5, 9) was 100% and the “% Inh. of tumor weight” value ([6]; dose 5, days 1, 5, 9) was 64%. The “% Inh. of tumor weight” value ([6]; dose 10, days 1, 5, 9) was 86%, the “% Inh. of tumor weight” value ([6]; dose 20, days 1, 5, 9) was 99% and the “% Inh. of tumor weight” value ([7]; dose 1.25, days 1, 5, 9) was 20%. The “% Inh. of tumor weight” value ([7]; dose 2.5, days 1, 5, 9) was 37%, the “% Inh. of tumor weight” value ([7]; dose 5, days 1, 5, 9) was 34% and the “% Inh. of tumor weight” value ([8]; dose 5, days 1, 5, 9) was 69%. For the same substance, the “% Inh. of tumor weight” value ([8]; dose 10, days 1, 5, 9) was 81% and the “% Inh. of tumor weight” value ([8]; dose 20, days 1, 5, 9) was 94%.
With “Pt(trans-DACH)Carboxy Dextran (11.700 Mw)” the Aqueous solubility [9]; 6 was 100 mg/mL and the Appearance [9]; 6 was “clear”.
In the case of “Pt(trans-DACH)Carboxy Dextran (11.700 Mw) [Example 8]”, the “Solubility at 50° C.” value [3] was 25 mg/mL, the Aqueous solubility [9]; 2 was 25 mg/mL and the Appearance [9]; 2 was “cloudy”.
With “Pt(trans-DACH)Carboxy Dextran (21,200 Mw) [Example 9]” the “Solubility at RT” value [3] was 100 mg/mL.
In the case of “Pt(trans-DACH)Carboxy Dextran (40,000 Mw) [Example 18]”, the Aqueous solubility [3] was 730 mg/mL, the Appearance [3] was “clear” and the “Solubility of the complex” value [3] was “greater than 30 mg per ml”.
For “Pt(trans-DACH)Carboxy Dextran (47,000 Mw) [Example 10]”, the “Solubility in water at room temperature and up to 50° C. (in words)” value ([3]; water, room temperature and up to 50° C.) was “insoluble in water at room temperature and up to 50 °C”.
For “Pt(trans-DACH)Carboxy Dextran Sulfate (6,000 Mw) [Example 11]”, the “Solubility at RT” value [3] was 50 mg/mL.
In the case of “Pt(trans-DACH)Carboxy Dextran, 11,700 Mw (58% Degree of Oxidation) [Example 12]”, the “Solubility at RT” value [3] was 100 mg/mL.
With “Pt(trans-DACH)Carboxy Polygalacturonic Acid [Example 14]” the “Solubility in aqueous solution (in words)” value ([3]; aqueous solution) was “Insoluble in aqueous solution”.
In the case of “Pt(trans-DACH)Carboxyamylose (176,000 Mw) [Example 16]”, the Aqueous solubility [3] was 725 mg/mL, the Appearance [3] was “clear” and the “Solubility of the complex on slight warming” value ([3]; on slight warming) was “greater than 25 mg per ml”.
For “Pt(trans-DACH)Polyacrylate (5000 Mw) [Example 2]”, the “Solubility in water (in words)” value ([3]; water) was “very soluble in water”.
With “Pt(trans-DACH)polyacrylate (2000 Mw) [Example 1]” the “Solubility in water (in words)” value ([3]; water) was “very soluble in water”.
In the case of cis-[Pt(NH3)2 Cl2 ] [cisplatin], the T/C ([4]; Table 3, 5 mg/kg) is given as 175 ± 5, the Water solubility ([2]; in water) is given as “about 1 mg/ml” and the “Effectiveness against animal tumors (in words)” value [10] is given as “effective against several types of animal tumors”. For the same substance, the “Use in human malignancies (in words)” value [11] was “used successfully in treating certain types of malignancies in humans”.
